Test results: patent US20100316609A1, “Conditionally Replicating Viruses for Cancer Therapy” (priority 2006, published 2010)

Legend:
[1] = test system: N2A neuroblastoma cells; assay: VPA effect on Ad.CMV-LacZ gene expression in vitro; type: cell-based
Method: FIG. 5A is a graph showing N2A cells transduced by Ad.CMV-LacZ, and then exposed to varying concentrations of VPA (as indicated). Twenty-four hours later, LacZ expression was analyzed. FIG. 5B is a graph showing N2A cells cultured on poly-D-lysine coated 12-well plates in NB/B27 medium, and transduced with Ad.CMV-LacZ at a multiplicity of infection (MOI) of 10. Two hours thereafter, the culture medium was replaced with medium containing 1 mM VPA or vehicle (control). The medium was changed every 24-hours thereafter, and cell aliquots were harvested at the indicated time points (1, 3, 5, 7, 10 and 12 days post infection). LacZ expression was then measured in the lysates.
VPA enhanced virally-vectored gene expression, using a panel of gene delivery platforms that include recombinant, replication-defective type 5 adenovirus vectors. […] Similar effects were also observed in several primary cells transduced by Ad-CMV-LacZ (Fan, et al., J. Virol. Methods 125:23-33 (2005)).

[2] = test system: BALB/c mice; assay: VPA effect on Ad-CMV-Luc gene expression in vivo; conditions: Ad-CMV-Luc intramuscular, VPA six days, biophotonic imaging
Method: In FIG. 6A luciferase-encoding adenovirus vector (Ad.CMV-Luc) was inoculated into the thigh muscle of BALB/c mice. These animals (3/group) were then treated with either VPA or with vehicle alone for six days, by twice-daily i.p. injection. Representative images obtained with the IVIS CCD camera at day 2 and 6 post Ad-infection are presented. In FIG. 6B the levels of adenovirally vectored luciferase gene expression in the mice shown in panel A were quantitated at day 2 and 6 post infection using the Living Image® 2.20.1 software (Xenogen, Alameda, Calif.).
[…] of a luciferase-expressing adenovirus vector (Ad-CMV-Luc) was inoculated into BALB/c mice, via an intramuscular route. These animals were then treated with either VPA or with vehicle alone for six days, and the expression of luciferase was analyzed over time using biophotonic imaging.

[3] = test system: human lung fibroblasts; assay: HIV-1 RT based cellular dNTP assay; type: cell-based
Description: A ^32P labeled 18-mer annealed to a 19-mer template was extended by HIV-1 RT with known amounts of TTP. Percent of the primer extension with each dNTP amount was plotted (B).
A highly sensitive dNTP assay capable of monitoring dNTP levels in primary cells has been described (Diamond et al., J. Biol. Chem. 279:51545-53 2004). It has been difficult to determine dNTP levels in terminally differentiated primary cells due to the lack of highly sensitive dNTP assays. […] This assay used a ^32P-labeled 18-mer primer annealed to a 19-mer template, allowing incorporation of one of four dNTPs, generating 19-mer products (FIG. 2A). Indeed, this assay is ˜250 times more sensitive than the HPLC based assay. With this assay, dNTP concentrations in primary human macrophages, CD4+ T cells, and human fibroblasts were determined (Table 3). This assay also allowed monitoring of fluctuations of cellular dNTP contents, in different cell types, or under different phases of the cell cycle or culture conditions. Primary cells such as human primary lung fibroblast cells (HFL culture with 10% serum) have 5-10 lower dNTP content than tumor cells such as PANC1 cells (Table 4). Treatment with deoxynucleoside (dNs) enhanced cellular dNTP content in human lung fibroblasts (cultured with 10% serum) by 80 fold (Table 4).

Row | Compound | reporter gene (LacZ) expression ([1]; Ad-CMV-LacZ transduced N2A cells, varying VPA, FIG. 5A) | duration of increased expression of the delivered gene post VPA-treatment ([1]; VPA 1 mM, FIG. 5B) | expression of luciferase compared to untreated mice [2] | enhancement of cellular dNTP content ([3]; human lung fibroblasts cultured with 10% serum) | [dNTP] ([3]; lung fibroblasts (+dN)) | [dNTP] relative to untreated lung fibroblasts (1x) ([3]; lung fibroblasts (+dN))
1 | CCCC(CCC)C(=O)O [VPA, Valproic acid] | dose-dependent increase | more than 12 days | increased expression of luciferase | – | – | –
2 | deoxynucleosides [dNs] | – | – | – | 80 fold | 20~90 μM | ~80 x
